Results on 3 molecules are retold here after patent publication US11780802B2, “Organic sulfonic acid salts of amino acid esters and process for their preparation” (priority 2017, dated 2023).

A short description of the data set: Stability in alkaline solution (residual ester bonds by 1H-NMR after storage). In kind it is physicochemical. The settings on record: 7 d, 50 wt % in water. Here is the method:
To determine the stability under alkaline conditions, 50 wt % of the organic sulfonic acid salt of an amino acid ester is dissolved in water, pH is adjusted with sodium hydroxide to pH 8.5. The aqueous solution or emulsion is stored for 7 days at room temperature and 40° C. Before storage the integral of CH2-O—CO— (^1H-NMR in MeOD, ˜4.2 ppm) is measured. The stability of organic sulfonic acid salt of an amino acid ester is indicated by measuring the integral of CH2-O—CO— (^1H-NMR in MeOD) after storage.

Take `CCCCC(CC)COC(=O)CCCCCN.CCCCCCCCCCCCc1ccc(S(=O)(=O)O)cc1` [Example 11, 6-amino-hexane acid-2-ethylhexylester 4-dodecylbenzene sulfonic acid salt]: the “Residual amount of ester bonds after storage, calculated from 1H-NMR in MeOD” value (shortened to “Residual amount … calculated from 1H-NMR in MeOD”) (pH 8.5, 40° C.) was 100% and the “Residual amount … calculated from 1H-NMR in MeOD” value (pH 8.5, RT) is listed as 100%.

For `CCCCC(CC)COC(=O)CN.CS(=O)(=O)O` (stereo not drawn) [compound 3], the “Residual amount … calculated from 1H-NMR in MeOD” value by setting is: (pH 8.5, 40° C.) 20%; (pH 8.5, RT) 37%.

As to `CCCCC(CC)COC(=O)C(C)N.CS(=O)(=O)O` (stereo not drawn) [compound 4], the “Residual amount … calculated from 1H-NMR in MeOD” value runs as follows: (pH 8.5, 40° C.) 46%; (pH 8.5, RT) 72%.
